Laboratory results from patent US20130190314A1, “DERIVATIVES OF 6-CYCLOAMINO-2-THIENYL-3-(PYRIDIN-4-YL)IMIDAZO[1,2-b]-PYRIDAZINE AND 6-CYCLOAMINO-2-FURANYL-3-(PYRIDIN-4-YL)IMIDAZO[1,2-b]-PYRIDAZINE, PREPARATION AND THERAPEUTIC USE THEREOF” (priority 2008, published 2013).

Experiments:
[1] = target: T1, casein kinase 1 epsilon (CK1 epsilon) (Homo sapiens, UniProt P49674); test: Filter-plate assay of ATP-33P: inhibition of phosphorylation of casein by CK1 epsilon; format: biochemical; conditions: casein substrate, 10 μM ATP, 2 hours at ambient temperature
T1 construct: Invitrogen Corporation (alternative)
T1 sequence (P49674 whole entry): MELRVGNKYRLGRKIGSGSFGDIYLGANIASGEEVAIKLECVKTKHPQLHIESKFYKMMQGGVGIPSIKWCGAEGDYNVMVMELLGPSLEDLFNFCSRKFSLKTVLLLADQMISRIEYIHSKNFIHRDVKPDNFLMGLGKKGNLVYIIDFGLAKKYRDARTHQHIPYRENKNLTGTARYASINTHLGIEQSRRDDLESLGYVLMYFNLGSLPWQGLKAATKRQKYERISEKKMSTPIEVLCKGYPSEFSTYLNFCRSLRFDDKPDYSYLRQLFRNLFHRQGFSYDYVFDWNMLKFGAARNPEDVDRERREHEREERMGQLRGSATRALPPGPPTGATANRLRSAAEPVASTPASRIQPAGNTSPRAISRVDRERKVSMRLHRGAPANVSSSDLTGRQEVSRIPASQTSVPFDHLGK
Protocol: The capacity of the compounds of the invention to inhibit the phosphorylation of casein by casein kinase 1 epsilon and delta can be evaluated according to the procedure described in document US 2005/0131012.
Filter-Plate Assay of ATP-^33P for the Screening of CK1 Epsilon Inhibitors:
The effect of the compounds on inhibition of the phosphorylation of casein by the enzyme casein kinase 1 epsilon (CK1 epsilon) is measured using a casein assay with filtration of ATP-^33P in vitro.
Casein kinase 1 epsilon (0.58 mg/ml) is obtained via fermentation and purification processes carried out according to methods well known to those skilled in the art, or may also be obtained from Invitrogen Corporation™ (human CK1 epsilon).
The compounds are tested at five different concentrations so as to generate IC50 values, i.e. the concentration at which a compound is capable of inhibiting the enzymatic activity by 50%, or alternatively the % inhibition at a concentration of 10 micromolar.
“U”-bottomed Falcon plates are prepared by placing 5 μl of solutions of the compounds according to the invention at concentrations of 10, 1, 0.1, 0.01 or 0.001 μM in various wells. The solutions of the compounds according to the invention at these various concentrations are prepared by diluting in a test buffer (50 mM Tris, pH 7.5, […], 2 mM DTT and 1 mM EGTA) a stock solution in DMSO at a concentration of 10 mM. Next, 5 μl of dephosphorylated casein are added to a final concentration of 0.2 μg/μl, 20 μl of CK1 epsilon are added to a final concentration of 3 ng/μl, and 20 μl of ATP-^33P are added to a final concentration of 0.02 μCi/μl mixed with cold ATP (10 μM final—approximately 2×10^6 CPM per well). The final total test volume per well is equal to 50 μl.
The “U”-bottomed Falcon® test plate mentioned above is vortexed, and then incubated at ambient temperature for 2 hours. After 2 hours, the reaction is stopped by adding an ice-cold solution of 65 μl of cold ATP (2 mM) prepared in test buffer. 100 μl of the reaction mixture are then transferred from the “U”-bottomed Falcon®plate into Millipore MAPH filter plates, preimpregnated with 25 μl of ice-cold 100% TCA. […]
The plates are left to dry overnight at ambient temperature. […] The radiation emitted by each well is then measured for 2 minutes in a Packard® Topcount NXT scintillation counter, in which the values of CPM/well are measured.
The % inhibition of the capacity of the enzyme to phosphorylate the substrate (casein) is determined for each concentration of compound tested. These inhibition data expressed as percentages are used to calculate the IC50 value for each compound compared with the controls.
The kinetic studies determined the KM value for ATP as being 21 μM in this test system.

[2] = system: Mper1-luc Rat-1 (P2C4) fibroblasts; test: Circadian cell assay: mPer1-promoter luciferase reporter, period prolongation; format: cell-based; conditions: effective concentration that induced a 1-hour prolongation of the circadian period
Protocol: Mper1-luc Rat-1 (P2C4) fibroblast cultures were prepared by dividing the cultures every 3-4 days (approximately 10-20% of confluence) on 150 cm^2 degassed polystyrene tissue culture flasks (Falcon® #35-5001) and maintained in growth medium [EMEM (Cellgro #10-010-CV); 10% foetal bovine serum (FBS; Gibco #16000-044); and 50 I.U./ml of penicillin-streptomycin (Cellgro #30-001-CI)] at 37° C. and under 5% CO2.
Cells obtained from Rat-1 fibroblast cultures at 30-50% of confluence as described above were co-transfected with vectors containing the selectable marker for zeocin resistance for a stable transfection and a luciferase reporter gene controlled by the mPer-1 promoter. After 24 to 48 hours, the cultures were divided on 96-well plates and maintained in growth medium supplemented with 50-100 μg/ml of zeocin (Invitrogen® #45-0430) for 10-14 days. The zeocin-resistant stable transfectants were evaluated for the expression of the reporter gene by adding 100 μM luciferin (Promega® #E1603®) to the growth medium and by assaying the luciferase activity on a TopCount® scintillation counter (Packard Model #C384V00). The Rat-1 cell clones expressing both zeocin resistance and luciferase activity controlled by mPer1 were serum-shock synchronized with 50% horse serum [HS (Gibco® #16050-122)] and the activity of the circadian reporter was evaluated. The P2C4 clone of Mper1-luc Rat-1 fibroblasts was selected to test the compound.
Mper1-luc Rat-1 (P2C4) fibroblasts at 40-50% of confluence, obtained according to the protocol described above, were plated out onto 96-well opaque tissue culture plates (Perkin Elmer® #6005680). The cultures are maintained in growth medium supplemented with 100 μg/mL of zeocin (Invitrogen #45-0430) until they have reached 100% of confluence (48-72 h). The cultures were then synchronized with 100 μl of synchronization medium [EMEM (Cellgro #10-010-CV); 100 I.U./ml of penicillin-streptomycin (Cellgro #30-001-C1); HS at 50% (Gibco #16050-122)] for 2 hours at 37° C. and under 5% CO2. After synchronization, the cultures were rinsed with 100 μl of EMEM (Cellgro #10-010-CV) for 10 minutes at ambient temperature. After rinsing, the medium was replaced with 300 μl of CO2 independent medium [CO2I (Gibco #18045-088); 2 mM L-glutamine (Cellgro #25-005-C1); 100 I.U./ml of penicillin-streptomycin (Cellgro #30-001-C1); 100 μM luciferin (Promega #E 1603)]. […]
The period analysis was performed either by determining the interval between the relative light emission minima over several days or by Fourier transform. […] The data were analysed by adjusting a hyperbolic curve to the data expressed as change of period (Y-axis) as a function of the concentration of the test compound (X-axis) in the XLfit™ software, and the CE Delta (t+1 h) was interpolated from this curve.

Compound | melting point | IC50 [1] | CE Delta (t + 1 h) [2]
c1csc(-c2nc3ccc(N4C[C@H]5CNC[C@H]5C4)nn3c2-c2ccncc2)c1 [Compound 6, 6-[(cis)-hexahydropyrrolo[3,4-c]pyrrol-2(1H)-yl]-3-(pyridin-4-yl)-2-(thien-2-yl)imidazo[1,2-b]pyridazine] | 179 to 183 °C |  | 
C[C@@H]1CN(c2ccc3nc(-c4ccc(Cl)s4)c(-c4ccncc4)n3n2)C[C@H](C)N1 [Compound 13, 2-(5-chlorothien-2-yl)-6-[(cis)-3,5-dimethylpiperazin-1-yl]-3-(pyridin-4-yl)imidazo[1,2-b]pyridazine] | 220 to 222 °C |  | 
CN1C[C@@H]2CN(c3ccc4nc(-c5ccc(Cl)s5)c(-c5ccncc5)n4n3)C[C@@H]2C1 [Compound 15, 2-(5-chlorothien-2-yl)-6-[(cis)-5-methylhexahydropyrrolo[3,4-c]pyrrol-2(1H)-yl]-3-(pyridin-4-yl)imidazo[1,2-b]pyridazine] | 217 to 220 °C |  | 
CN1CCN(c2ccc3nc(-c4ccsc4)c(-c4ccncc4)n3n2)CC1 [Compound 18, 6-(4-methylpiperazin-1-yl)-3-(pyridin-4-yl)-2-(thien-3-yl)imidazo[1,2-b]pyridazine] | 177 to 179 °C | 25 nM | 74 to 83 nM
CC(C)(O)CN1CCN(c2ccc3nc(-c4ccsc4)c(-c4ccncc4)n3n2)CC1 [Compound 19, 2-methyl-1-[4-(3-(pyridin-4-yl)-2-(thien-3-yl)imidazo[1,2-b]pyridazin-6-yl)piperazin-1-yl]propan-2-ol] | 178 to 180 °C |  | 
c1cc(-c2c(-c3ccsc3)nc3ccc(N4CCC5(CCCNC5)CC4)nn23)ccn1 [Compound 22, 9-[3-(pyridin-4-yl)-2-(thien-3-yl)imidazo[1,2-b]pyridazin-6-yl]-2,9-diazaspiro[5.5]undecane] | 133 to 168 °C |  | 
c1cc(-c2c(-c3ccsc3)nc3ccc(N4CCC(N5CCCC5)CC4)nn23)ccn1 [Compound 23, 3-(pyridin-4-yl)-6-(4-pyrrolidin-1-ylpiperidin-1-yl)-2-(thien-3-yl)imidazo[1,2-b]pyridazine] | 168 to 170 °C |  | 
Cc1ccc(-c2nc3ccc(N4CCN(CCO)CC4)nn3c2-c2ccncc2)o1 [Compound 28, 2-{4-[2-(5-methylfuran-2-yl)-3-pyridin-4-ylimidazo[1,2-b]pyridazin-6-yl]piperazin-1-yl}ethanol] | 190 to 192 °C |  | 
Cc1ccc(-c2nc3ccc(N4CCN(CC(C)(C)O)CC4)nn3c2-c2ccncc2)o1 [Compound 29, 2-methyl-1-{4-[2-(5-methylfuran-2-yl)-3-pyridin-4-ylimidazo[1,2-b]pyridazin-6-yl]piperazin-1-yl}propan-2-ol] | 147 to 149 °C |  | 
CN1C[C@@H]2CN(c3ccc4nc(-c5ccoc5)c(-c5ccncc5)n4n3)C[C@@H]2C1 [Compound 34] |  | 15 nM | 17 nM

Now from value to molecule, other results behind:

melting point | IC50 [1] | Compound | CE Delta (t + 1 h) [2]
217 to 220 °C |  | c1csc(-c2nc3ccc(N4CCNCC4)nn3c2-c2ccncc2)c1 [Compound 1, 6-(piperazin-1-yl)-3-(pyridin-4-yl)-2-(thien-2-yl)imidazo[1,2-b]pyridazine] | 
176 to 179 °C |  | c1csc(-c2nc3ccc(N4CC5CCCNC5C4)nn3c2-c2ccncc2)c1 (stereo not drawn) [Compound 7, 6-(Octahydro-6H-pyrrolo[3,4-b]pyridin-6-yl)-3-(pyridin-4-yl)-2-(thien-2-yl)imidazo[1,2-b]pyridazine] | 
184 to 189 °C |  | c1csc(-c2nc3ccc(N4CCC5(CCCNC5)CC4)nn3c2-c2ccncc2)c1 [Compound 8, 9-(3-(pyridin-4-yl)-2-(thien-2-yl)imidazo[1,2-b]pyridazin-6-yl)-2,9-diazaspiro[5.5]undecane] | 
139 to 149 °C |  | CC(C)(O)CN1CCN(c2ccc3nc(-c4ccoc4)c(-c4ccncc4)n3n2)CC1 [Compound 31, 1-[4-(2-furan-3-yl-3-pyridin-4-ylimidazo[1,2-b]pyridazin-6-yl)piperazin-1-yl]-2-methylpropan-2-ol] | 
178 to 181 °C |  | Cc1ccc(-c2nc3ccc(N4C[C@H]5CN(C)C[C@H]5C4)nn3c2-c2ccncc2)o1 [Compound 33, 2-(5-Methylfuran-2-yl)-6-[(cis)-5-methylhexahydropyrrolo[3,4-c]pyrrol-2(1H)-yl]-3-(pyridin-4-yl)imidazo[1,2-b]pyridazine] | 
